# Measurements from patent publication US7271148B2, “Inhibition of cellular proteases” (The Board of Regents of The University of Texas System, priority 1999, dated 2007).
# Legend:
# m-calpain = target: T1, m-calpain (Homo sapiens, UniProt P17655); assay: Cleavage of purified recombinant p21cip1 by purified m-calpain; type: biochemical; details: purified recombinant p21^cip1 incubated with m-calpain
# T1 construct: purchased Sigma (St. Louis, Mo.)
# T1 sequence (P17655 1-700): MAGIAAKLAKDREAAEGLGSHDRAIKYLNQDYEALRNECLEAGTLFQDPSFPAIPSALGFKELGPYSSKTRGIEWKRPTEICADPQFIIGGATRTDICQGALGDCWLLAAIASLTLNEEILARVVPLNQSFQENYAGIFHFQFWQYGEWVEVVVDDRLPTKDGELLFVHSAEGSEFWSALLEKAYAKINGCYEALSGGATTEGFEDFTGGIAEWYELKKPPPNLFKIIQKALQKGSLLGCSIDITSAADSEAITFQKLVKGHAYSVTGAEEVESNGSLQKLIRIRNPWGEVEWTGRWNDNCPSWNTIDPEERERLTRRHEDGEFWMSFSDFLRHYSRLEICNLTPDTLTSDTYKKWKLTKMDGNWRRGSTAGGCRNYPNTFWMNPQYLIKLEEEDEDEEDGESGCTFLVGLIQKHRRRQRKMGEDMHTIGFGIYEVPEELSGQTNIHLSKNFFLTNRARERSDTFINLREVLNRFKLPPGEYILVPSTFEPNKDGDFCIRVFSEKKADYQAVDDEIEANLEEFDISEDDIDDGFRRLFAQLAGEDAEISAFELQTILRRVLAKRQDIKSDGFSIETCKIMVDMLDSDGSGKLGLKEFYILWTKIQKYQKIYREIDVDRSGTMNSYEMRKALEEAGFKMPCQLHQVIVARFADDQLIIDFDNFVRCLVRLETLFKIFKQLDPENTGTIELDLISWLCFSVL
# T1 sequence (P04632 1-268 partner): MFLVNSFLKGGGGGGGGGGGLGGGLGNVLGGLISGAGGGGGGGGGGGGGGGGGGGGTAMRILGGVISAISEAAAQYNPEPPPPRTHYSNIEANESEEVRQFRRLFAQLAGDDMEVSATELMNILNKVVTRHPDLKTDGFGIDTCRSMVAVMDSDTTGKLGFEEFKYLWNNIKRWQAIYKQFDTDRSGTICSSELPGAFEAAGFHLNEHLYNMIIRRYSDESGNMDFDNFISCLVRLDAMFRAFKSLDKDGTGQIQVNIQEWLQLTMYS
# Procedure: Cleavage of p21^cip1 by calpain. Recombinant p21^cip1 was provided by Harper (37) or Ke (47), and was also prepared using the expression plasmid pET-p21 (37) according to the published methods (30). To evaluate the effect of calpains on p21^cip1, 400 ng of purified recombinant p21^cip1 was incubated with 0.004 units of either pure μ-calpain or m-calpain at 30° C. for 30 minutes in 40 μl of cleavage buffer, containing 25 mM Tris-HCl (pH 7.5), 100 mM NaCl, 3 mM DTT and 5 mM CaCl2 (44). EDTA was added to 10 mM to stop the reaction. An equal volume of 2×SDS gel-loading buffer (18) was mixed with the digestion mixture and the mixture was immediately boiled for 5 min. The digestion products were evaluated by Western blot analysis or SDS-PAGE and coomassie brilliant blue staining.
# [1] = tested on: p21^cip1 abundance in mock-infected LU cells; assay: Western blot of p21cip1 abundance in mock-infected, density-arrested LU cells; type: cell-based, human; details: E64d 100 μM, mock-infected cells
# Procedure: Cell culture and growth arrest. LU cells (3) were propagated in Eagle's minimum essential medium containing 10% fetal bovine serum and penicillin (100 units/ml)/streptomycin (100 μg/ml) in a 5% CO2 in air atmosphere. The cells were density-arrested as described previously in detail (18).
# Virus stocks and productive infection. The AD169 strain of HCMV was propagated in LU cells as previously described in detail (6). The infectivity of virus stocks was determined by plaque assay (3). Virus stocks typically had infectivities between 8.0×10^6 and 4.0×10^7 plaque-forming units (PFU)/milliliter. LU cells were infected with HCMV as described in detail by Bresnahan et al. (18). Virus stocks and cell cultures were routinely examined for mycoplasma.
# Western blots. Polyclonal or monoclonal antibody for p21^cip1 was obtained from Santa Cruz Biotechnology, Inc. (Santa Cruz, Calif.). Monoclonal antibodies against m-calpain, μ-calpain or calpastatin were generously provided by Dr. R. I. Mellgren (see also 75). Cells were harvested as described previously (18) by dislodging the cells with a cell lifter in phosphate buffered saline. The cells were collected by sedimentation and lysed in NP-40 lysis buffer [50 mM Tris, pH 7.4, 50 mM NaCl, 0.5% NP-40, and 1 mM NaVO3, 50 mM NaF, 1mM phenylmethylsulfonyl fluoride (PMSF), 1 mM dithiothreitol (DTT), 25 μg/ml trypsin inhibitor, 25 μg/ml aprotinin, 1 mM benzamide, and 25 μg/ml pepstatin A added just before use]. Cellular debris was removed by sedimentation and the supernatant fluids were reserved. The protein concentration was determined by the BCA protein assay (Pierce, Rockford, Ill.). Whole cell extracts (40 μg/lane) were fractionated by SDS-polyacrylamide gel electrophoresis (PAGE), and the polypeptides were transferred to nitrocellulose membranes (Bio-Rad Laboratories, Hercules, Calif.) as described previously (18). Antigen-antibody reactions were detected with the enhanced chemiluminescent assay (Amersham Pharmacia Biotech) following the manufacturer's recommendations.
# FIGS. 5 and 6. The effect of MG132, an inhibitor of proteasome degradation, on p21^cip1 abundance in HCMV- or mock-infected, density-arrested LU cells. 5. LU cells were density arrested, as described in Materials and Methods. The cell cultures were HCMV (5 PFU/cell)- or mock-infected and then exposed to selected concentrations of MG132 at 24 hr PI. Cell lysates were prepared at 30 hr PI (i.e., 6 hr after […] treatment), and 40 μg of protein from each lysate was resolved by SDS-PAGE. The proteins were transferred to nitrocellulose and probed with antibodies against p21^cip1. Control, cells cultured in the absence of MG132 or its solvent, DMSO. 0, DMSO solvent control, consisting of cells treated with the same concentration of DMSO (0.1%) present in the cultural fluids containing highest concentration of MG132 (10 μM). 6. Represents the abundance of p21^cip1 after MG132 treatment determined by densitometry of the data illustrated in FIG. 5. The data for mock-infected cells (open bars) were calculated relative to the p21^cip1 abundance in untreated mock-infected cells, while the data for HCMV-infected cells (closed bars) were determined relative to the p21^cip1 abundance in untreated HCMV-infected cells.
# FIGS. 7 and 8. […]
# At the times indicated in the FIG., whole cell lysates were prepared, and 40 μg of protein from each lysate was analyzed by SDS-PAGE. […]
smiles,measurement,setting,value
"CC(C)C[C@H](NC(=O)[C@H]1O[C@@H]1C(=O)O)C(=O)NCCCCN=C(N)N (relative stereo) [E64d, trans-epoxysuccinyl-L-leucylamido (4-guanidino)-butane]",proteolysis of p21^cip1 by m-calpain (in words),m-calpain,inhibited the proteolysis
same,effect on p21^cip1 levels in mock-infected cells (in words),[1],"little, if any, effect"
same,increase in p21^cip1,[1]; 3 hr post-treatment (treatment from 48 hr PI),~56%
